US8865622B2, “Use of active ingredients for controlling nematodes in nematode-resistant crops” (priority 2010, dated 2014)

Tests used:
[1] = tested on: SCN (inbred colony OP50, able to overcome PI 88788 resistance); assay: SCN cyst count on soybean plants grown from treated seed, pot test in germination chamber; type: in vivo; conditions: for reduction of SCN populations: nontransgenic Jack plants, cysts counted two months after planting; for percent reduction of average number of cysts compared to Jack: base (color/coating) treatment only, trait effect
Experimental: (§1) Two tests were planted with Jack (an SCN resistant soybean variety with PI 88788 resistance) and two genetically modified Jack varieties (AXN2 and AXMI031) known to produce a nematicidal protein. The seed were treated with a color/coating base or the same base plus one of two different rates of fluopyram (experiment 1 used 0.075 mg fluopyram/seed and experiment 2 used 0.15 mg fluopyram/seed). The SCN used to inoculate both tests were collected from an inbred colony (OP50) with the ability to overcome PI 88788 resistance.
(§2) Tests were conducted as non-randomized blocks with a minimum of 10 replicates. Seed were planted in individual 4″ clay pots with coarse sand and inoculated with approximately 20,000 OP50 juveniles in ten equal inoculations beginning at planting and again approximately every third day. Plants were maintained in a germination chamber. Blocks were rotated approximately every third day to minimize potential influence of environmental variance. Two months after planting, plants were harvested and cysts were collected and counted to evaluate the efficacy of the nematicide and traits, both individually and in combination with each other.

[2] = tested on: Jack soybean plants (nontransgenic, AXN2, AXMI031); assay: Plant height of soybean plants in the SCN pot test; type: in vivo
Experimental: as §1, §2

Row | Molecule | reduction of SCN populations ([1]; first experiment, 0.075 mg fluopyram/seed) [%] | approximate reduction (SCN) provided by fluopyram ([1]; high rate (0.15 mg/seed), transgenic Axmi031 plants) [%] | approximate reduction (SCN) provided by fluopyram ([1]; high rate (0.15 mg/seed), transgenic Axn2 plants) [%] | approximate reduction (SCN) provided by fluopyram ([1]; low rate (0.075 mg/seed), transgenic Axmi031 plants) [%] | approximate reduction (SCN) provided by fluopyram ([1]; low rate (0.075 mg/seed), transgenic Axn2 plants) [%] | reduction of SCN populations ([1]; second experiment, 0.15 mg fluopyram/seed) [%] | effect on average plant height ([2]; both genetically modified varieties (Axn2, Axmi031), both experiments (0.075 and 0.15 mg/seed)) | effect on average plant height ([2]; nontransgenic control Jack plants, both experiments) | percent reduction of average number of cysts compared to Jack ([1]; first experiment) [%] | percent reduction of average number of cysts compared to Jack ([1]; second experiment) [%]
1 | O=C(NCCc1ncc(C(F)(F)F)cc1Cl)c1ccccc1C(F)(F)F [fluopyram, N-{2-[3-chloro-5-(trifluoromethyl)-2-pridinyl]ethyl}-2-(trifluoromethyl)benzamide] | 26 | ~40 | ~40 | ~20 | ~20 | 43 | increased average plant height | not having an effect |  | 
2 | AXMI031: genetically modified Jack soybean variety known to produce a nematicidal protein (gene axmi031, Table 1) (protein, listed as Bacillus thuringiensis) MNMNNTKLNARALPSFIDYFNGIYGFATGIKDIMNMIFKTDTGGDLTLDEILKNQQLLNEISGKLDGVNGSLNDLIAQGNLNTELSKEILKIANEQNQVLNDVNNKLDAINTMLNIYLPKITSMLSDVMKQNYALSLQIEYLSRQLQEISDKLDVINLNVLINSTLTEITPSYQRIKYVNEKFDKLTFATESTLRAKQGIFNEDSFDNNTLENLTDLAELAKSITKNDVDSFEFYLHTFHDVLIGNNLFGRSALKTASELITKDEIKTSGSEIGKVYSFLIVLTSLQAKAFLTLTTCRKLLGLSDIDYTSIMNEHLNNEKNEFRDNILPALSNKFSNPSYAKTIGSDNYAKVILESEPGYALVGFEIINDPIPVLKAYKAKLKQNYQVDNQSLSEIVYLDIDKLFCPENSEQKYYTKNLTFPDGYVITKITFEKKLNNLIYEATANFYDPSTGDIDLNKKQVESTFPQTDYITMDIGDDDGIYMPLGVISETFLTPINSFGLEVDAKSKTLTLKCKSYLREYLLESDLKNKETGLIAPPNVFISNVVKNWDIEEDSLEPWVANNKNAYVDNTGGIERSKALFTQGDGEFSQFIGDKLKPNTDYIIQYTVKGKPAIYLKNKSTGYITYEDTNGNSEEFQTIAVKFTSETDLSQTHLVFKSQNGYEAWGDNFIILEAKLFETPESPELIKFNDWERFGTTYITGNELRIDHSRGGYFRQSLNIDSYSTYDLSFSFSGLWAKVIVKNSRGVVLFEKVKNNGSSYEDISESFTTASNKDGFFIELTAERTSSTFHSFRDISIKEKIE |  |  |  |  |  |  |  |  | 92 | 88
3 | AXN2: genetically modified Jack soybean variety known to produce a nematicidal protein (gene axn2, Table 1) (protein, AXMI-205(trun20)) MASAANAGQLGNLPGVTSMGMGYDVNGLYASPESLLGQPLFDFGGELDSIEIEGRSYTFPRSMHVHTYFHSDFKQDVSKEIEEYREKMSQHVGVSGRYKLFSASLSVDFTTTDQQLTEITYSSTREAHVLWYISLPGAATLRSMLRRDFRDDLNNPNMPAMELFKRYGPYYISEAAVGGRLDYSAASKTLKMDSSQSLSTTAEMSYKALVGEIKIEHGSEMEKQVNSFRSNSTIRLTATGGKPGMTDRILHGPDSQQAFSQWAESLLDYATLMDFSTESLQPIWALADKPERRVELEDAFPEFMKQSQQSIPKVDKVLLMDARPPMVKAGEDSGSGASEDLAVFNPSTSNGYKMVGQFGQRNHASVADGHAPIFKDLFDLGVLKAPVGWQRVWDDAGSGKSKDYACWRAIPPQGYRALGDVMMLATSGYNPPNLPDYVCVHQSLCADVQTLQNRVWWDKGTGARKDVSLWQPGAAGAVASSCFAGVPNYNNPPNSGDIERLRGSIACVKTSAIASM |  |  |  |  |  |  |  |  | 20 | 43
